Active and inactive are the calls of the source. No rule for the calls is given here.
Target: Trace amine-associated receptor 1 (Homo sapiens) (UniProt Q96RJ0)
Assay: human TAAR1 antagonists, late-stage follow-up, cell-based, fluorescence, MedChem round 2 (AID 1117265)
Details: TAAR1-expressing cells, antagonist mode

Chain of Trace amine-associated receptor 1 (Homo sapiens) (Q96RJ0 whole entry, looked up): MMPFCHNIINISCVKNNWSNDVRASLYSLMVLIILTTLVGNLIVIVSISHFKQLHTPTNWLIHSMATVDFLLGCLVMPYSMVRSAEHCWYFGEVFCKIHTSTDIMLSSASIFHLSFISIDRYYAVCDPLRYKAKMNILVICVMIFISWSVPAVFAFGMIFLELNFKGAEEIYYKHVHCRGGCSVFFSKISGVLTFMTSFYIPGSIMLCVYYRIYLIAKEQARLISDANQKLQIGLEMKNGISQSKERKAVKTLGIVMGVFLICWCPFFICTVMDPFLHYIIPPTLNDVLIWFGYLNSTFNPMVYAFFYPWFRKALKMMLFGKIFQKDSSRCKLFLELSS

| Compound | IC50 |
| --- | --- |
| CC(CN1CCCC1Cc1ccccc1)C(=O)c1ccc2c(c1)OCCO2 (configuration not stated) | 2960 nM |
| COc1cc(C(=O)CCN2CCC(c3ccccc3)C2)cc(OC)c1OC (configuration not stated) | 419 nM |
| N#Cc1c(C(F)(F)F)cc(-c2ccc(Cl)cc2)nc1SCC(=O)Nc1ncccn1 | 3.74 nM |
| N#Cc1c(C(F)(F)F)cc(-c2ccc(Cl)cc2)nc1SCC(=O)N1CCCCCC1 | > 29900 nM (inactive) |
| Cc1ccc(C(=O)CCN2CCC(c3ccccc3)C2)cc1 (configuration not stated) | 672 nM |
| O=C(CCN1CCC(c2ccccc2)C1)c1ccccc1 (configuration not stated) | 765 nM |
| N#Cc1c(C(F)(F)F)cc(-c2ccc(Cl)cc2)nc1SCC(=O)N1CCCC1 | 1070 nM |
